Measurements from patent US11596622B2, “Mazindol treatment for heroin dependence and substance use disorder” (NLS Pharmaceutics AG, priority 2017, dated 2023).

What was measured:
C57BL/6J mice = assay: Effect of treatment on the conditioned place preference induced by heroin; type: in vivo; conditions: for Distance travelled in the drug-paired compartment / Distance travelled in the two compartments (Drug + Vehicle) / Distance travelled in the vehicle-paired compartment / Distance travelled, drug-paired minus vehicle-paired compartment / Time spent in the drug-paired compartment / Time spent in the vehicle-paired compartment / Time spent, drug-paired minus vehicle-paired compartment: mean
Description: Conditioned place preference (CPP) is a widely used procedure for studying the potential addictive effect of drugs. CPP is based upon the tendency of rodents to approach a stimulus that has previously been paired with an incentive state induced by a drug. A drug that induces a CPP may be suspected to present reinforcing effects that could lead to addiction. Numerous addictive drugs, such as opiate agonists or stimulants induce a CPP and a behavioral sensitization.
The effect of mazindol on place preference was examined in C57BL/6J mice using a method similar to the one used by Schlussman et al. (9).
The third experiments consisted in examining the effects of mazindol and D-amphetamine (at doses chosen from results of the first part of the study) on the place preference induced by heroin at a dose chosen from results of the second experiment, which was 1.25 mg/kg. Mazindol (0.125, 0.25 and 0.5 mg/kg) and D-amphetamine (0.5 mg/kg) were tested.
Therefore, it was decided to perform an additional experiment to examine the effects on place preference induced by heroin of mazindol at 1 and 2 mg/kg and of D-amphetamine at 1 mg/kg.
(§1) Following the habituation session (on day 1), animals (N=72) were pseudo-randomly assigned to two groups, a Control group (N=12) and a Heroin group (N=60), in a way that there was no significant difference between the two groups for the total distance travelled in the apparatus and for the percentage of time spent and the percentage distance travelled in the grey compartment and in the striped compartment.
Animals received the following treatments immediately before drug sessions: • Control group: vehicle • Heroin group: heroin (1.25 mg/kg)
(§2) Following the last conditioning session, the Heroin group was pseudo-randomly divided into 5 groups (N=12/group) in a way that there was no significant difference between groups for the total distance travelled in the apparatus and for the percentage of time spent and the percentage distance travelled in the grey compartment and in the striped compartment in habituation session, for the distance travelled in the drug-paired and in the vehicle-paired compartments in conditioning sessions and for the proportion of striped drug-paired compartments.
Animals received the following treatments before preference session: • Control group: vehicle of mazindol, i.p. 60 min before testing. • Hero group: vehicle of mazindol, i.p. 60 min before testing. • Hero-A 0.5 group: D-amphetamine (0.5 mg/kg), i.p. 30 min before testing. • Hero-Mz 0.125 group: mazindol (0.125 mg/kg), i.p. 60 min before testing. • Hero-Mz 0.25 group: mazindol (0.25 mg/kg), i.p. 60 min before testing. • Hero-Mz 0.5 group: mazindol (0.5 mg/kg), i.p. 60 min before testing.
as §1, with “three” for “two”, “(N=12),” for “(N=12) and”, “(N=48) and a Mazindol group (N=12),” for “(N=60),”
Animals received the following treatments before drug sessions: • Control group: vehicle, i.p. immediately before session. • Heroin group: heroin (1.25 mg/kg), i.p. immediately before session. • MAZ 2 group: mazindol (2 mg/kg), i.p. 60 min before session.
as §2, with “into 4” for “into 5”, “there is” for “there was”, “compartments. […]” for “compartments.”

Sprague-Dawley rats = assay: Naloxone precipitated withdrawal syndrome of heroin; type: in vivo
Protocol: The abrupt cessation of chronic opiate use results in a well characterized withdrawal syndrome with symptoms that include pain sensitivity, dysphoria, irritability, restlessness, insomnia, diarrhea and hyperventilation. In the present model, the naloxone-precipitated withdrawal syndrome is measured in rodents. Animals are chronically treated with a drug, e.g. morphine or heroin. Opiate withdrawal syndrome is elicited by an acute injection of the opiate antagonist Naloxone.
The effect of mazindol on heroin withdrawal syndrome elicited by naloxone was examined in Sprague-Dawley rats using a method similar to the one used by Jiang et al. (10),
Animals were subdivided into two groups. One group received heroin two i.p. injections/day for 12 consecutive days and a single injection on the 13th day (total: 25 injections) as exposed in Table 3 group received saline instead of heroin following the same protocol.
On day 13, animals received treatments and were tested according to the following time schedule: • T=0: i.p. injection of heroin (15 mg/kg) or vehicle. • T=2.5 h: animals individually placed in a transparent Plexiglas observation boxes (40×40×40 cm). • T=3.5 h: i.p. injection of treatment (see below). • T=4 h: i.p. injection of naloxone (5 mg/kg), start of test: observation of withdrawal symptoms as indicated in Table 4. • T=5 h: end of test, animals placed back into their home cages.
Animals received the following treatments at T 3.5 h (i.e. 30 min before injection of naloxone and observation of symptoms): • 1) Animals treated with saline during the intoxication period (days 1-12) and at T0 on day 13: • Saline group (N=8): saline (0.9% NaCl). • 2) Animals treated with […] during the intoxication period (days 1-12) and at T0 on day 13: • Hero group (N=14): saline (0.9% NaCl). • Amph 1 group (N=4): D-amphetamine (1 mg/kg). • Maz 0.125 group (N=5): mazindol (0.125 mg/kg). • Maz 0.25 group (N=6): mazindol (0.25 mg/kg). • Maz 0.5 group (N=6): mazindol (0.5 mg/kg). • Maz 1 group (N=6): mazindol (1 mg/kg). • Maz 2 group (N=5): mazindol (2 mg/kg).
A weighting factor was ascribed for each sign from which a score was calculated.
Examples: • Body weight before naloxone injection=241 g; after naloxone injection=236 g: • Weight loss score=2=100×(241−236)/241 • Number of escape attempts=8: • Score for escape attempts=2 • Profuse salivation present: • Score for profuse salivation
A global withdrawal score was then calculated: • Global score=the sum of the scores

[1] = Hero-A 0.5: heroin 1.25 mg/kg conditioning, D-amphetamine 0.5 mg/kg i.p. 30 min before preference session
[2] = Hero-A 1: heroin 1.25 mg/kg conditioning, D-amphetamine 1 mg/kg i.p. 30 min before preference session
[3] = Amph 1: heroin-treated rats, D-amphetamine 1 mg/kg i.p. 30 min before naloxone 5 mg/kg, mean

In the case of `C[C@H](N)Cc1ccccc1.C[C@H](N)Cc1ccccc1.O=S(=O)(O)O` [D-amphetamine, D-amphetamine sulfate], the “effect on the heroin-induced increase of distance travelled in the drug-paired compartment” value (C57BL/6J mice; D-amphetamine 0.5 mg/kg) is reported as “had no effect”, the “effect on the heroin-induced increase of time spent in the drug-paired compartment” value (C57BL/6J mice; D-amphetamine 0.5 mg/kg) is reported as “non-significantly reduced” and the “effect on the heroin-induced increases of time spent and distance travelled in the drug-paired compartment” value (C57BL/6J mice; D-amphetamine 1 mg/kg) is reported as “did not modify”. For the same compound, the “effect on the place preference induced by heroin” value (C57BL/6J mice; D-amphetamine 0.5, 1 mg/kg i.p. before preference session) was “do not show a reliable effect”, the “total distance travelled in two compartments (FIG. 3)” value (C57BL/6J mice; D-amphetamine 0.5 and 1 mg/kg i.p. before preference session) was “at 0.5 mg/kg, but not at 1 mg/kg decreased the total distance travelled in two compartments” and the “Distance travelled in the drug-paired compartment” value (C57BL/6J mice; [1]) was 6797.2 cm. The “Distance travelled in the two compartments (Drug + Vehicle)” value (C57BL/6J mice; [1]) was 11379.9 cm, the “Distance travelled in the vehicle-paired compartment” value (C57BL/6J mice; [1]) was 4582.7 cm and the “Distance travelled, drug-paired minus vehicle-paired compartment” value (C57BL/6J mice; [1]) was 2214.6 cm. The “Time spent in the drug-paired compartment” value (C57BL/6J mice; [1]) was 984.5 s, the “Time spent in the vehicle-paired compartment” value (C57BL/6J mice; [1]) was 815.5 s and the “Time spent, drug-paired minus vehicle-paired compartment” value (C57BL/6J mice; [1]) was 168.9 s. For the same compound, the “Distance travelled in the drug-paired compartment” value (C57BL/6J mice; [2]) was 7416.7 cm, the “Distance travelled in the two compartments (Drug + Vehicle)” value (C57BL/6J mice; [2]) was 13005.6 cm and the “Distance travelled in the vehicle-paired compartment” value (C57BL/6J mice; [2]) was 5588.9 cm. The “Distance travelled, drug-paired minus vehicle-paired compartment” value (C57BL/6J mice; [2]) was 1827.8 cm, the “Time spent in the drug-paired compartment” value (C57BL/6J mice; [2]) was 1048.3 s and the “Time spent in the vehicle-paired compartment” value (C57BL/6J mice; [2]) was 751.7 s. For the same compound, the “Time spent, drug-paired minus vehicle-paired compartment” value (C57BL/6J mice; [2]) was 296.5 s, the “Abdominal constrictions score (Abd C)” value (Sprague-Dawley rats; [3]) was 0.0 and the “Abnormal posture score (Ab P)” value (Sprague-Dawley rats; [3]) was 0.0. The “Chromodacryorrhea score (Chr)” value (Sprague-Dawley rats; [3]) was 5.0, the “Diarrhea score (Diarr)” value (Sprague-Dawley rats; [3]) was 2.0 and the “Erection or ejaculation score (Er Ej)” value (Sprague-Dawley rats; [3]) was 0.0. For the same compound, the “Escape attempts score (Esc A)” value (Sprague-Dawley rats; [3]) was 1.8, the “Facial fasciculation or teeth chattering score (F F T C)” value (Sprague-Dawley rats; [3]) was 2.0 and the “Global Score” value (Sprague-Dawley rats; [3]) was 22.5. The “Irritability score (Irrit)” value (Sprague-Dawley rats; [3]) was 0.0, the “Profuse salivation score (Pr Sal)” value (Sprague-Dawley rats; [3]) was 5.3 and the “Ptosis score (Ptos)” value (Sprague-Dawley rats; [3]) was 0.0. For the same compound, the “Swallowing movements score (Sw M)” value (Sprague-Dawley rats; [3]) was 1.0, the “Weight loss score (W Los)” value (Sprague-Dawley rats; [3]) was 2.0 and the “Wet dog shakes score (W D S)” value (Sprague-Dawley rats; [3]) was 3.5. For the same compound, the “effect on naloxone precipitated withdrawal symptoms of heroin” value (Sprague-Dawley rats; D-amphetamine 1 mg/kg) was “did not reduce the withdrawal symptoms of heroin” and the effect on chromodacryorrhea (Sprague-Dawley rats; D-amphetamine 1 mg/kg, increase not significant) was “tended to increase”.
